The source of these data is patent publication US7923004B2 (priority 2006, dated 2011).

Assay type in all cases: cell-based
For series [1], the system named is HCV genotype 1a replicon (En5-3/Htat2ANeo cells). Kind of series: HCV-1a Replicon RNA (Taqman) inhibition assay. To be noted: Hepatitis C virus, 72 h. A general note: In antiviral work, replicon cells carry a viral genome segment that copies itself.
Series [2] can be described thus: Cell Titer-Glo Cell Viability Assay, genotype 1a cells. To be noted: human, En5-3/Htat2ANeo (HCV genotype 1a replicon) cells, HCV-1a assays, read-out: Cytotoxicity* (CC50). On the procedure:
(§1) Cell Seeding and Compound Treatment: Huh-Luc-Neo (Genotype 1b) or En5-3/Htat2ANeo (Genotype 1a) cells are seeded at 5000-7000/well in an opaque-walled 96 plate with Growth Medium (DMEM phenol red free+PS+2 mM glutamine; 100 ul/well). The compounds to be tested for inhibition of cell viability are added to the experimental wells so as to generate a dose response curve (8-9 concentrations, 10 μl/well at 10× assay concentration) and the cells are then incubated (5% CO2, 37° C.) for 72 h.
(§2) Reagent Preparation and Assay: After completion of the incubation period the cell viability measurements are made using the Cell Titre Glo Assay (Promega) according to the manufacturer's recommended protocol. Briefly, the CellTiter-Glo Buffer is thawed and equilibrated to room temperature prior to use. The lyophilized CellTiter-Glo Substrate is also equilibrated to room temperature prior to use. 10 ml of CellTiter-Glo Buffer is then transferred to 1 vial of CellTiter-Glo Substrate and mixed gently with a Vortex. 100 μl of CellTiter-Glo Assay reagent (CellTiter-Glo Buffer+CellTiter-Glo Substrate Mixture) is added to each well. The well contents are mixed for 5 min. on an orbital shaker at room temperature to induce cell lysis and the luminescence is then measured using a luminometer.
On the technique in general: In ATP-based viability assays light output follows the ATP content of the culture.

For series [3], the system named is HCV genotype 1b replicon (Huh-Luc-Neo cells). Kind of series: HCV Replicon Luciferase Assay. To be noted: Hepatitis C virus, Huh-Luc-Neo cells, genotype 1b, 72 h, read-out: HCV-1b Replicon Inhibition*, Luciferase (EC50).
Series [4] shares this test system. Kind of series: HCV Replicon RNA (Taqman) Assay, genotype 1b. To be noted: Hepatitis C virus, Huh-Luc-Neo cells, genotype 1b, HCV RNA, 72 h, read-out: HCV-1b Replicon Inhibition*, Taqman (EC50).
A short description of series [5]: Cell Titer-Glo Cell Viability Assay, genotype 1b cells. To be noted: human, Huh-Luc-Neo (HCV genotype 1b replicon) cells, HCV genotype 1b assays, read-out: Cytotoxicity* (CC50). The protocol: as §1, §2

Some results are limits rather than exact numbers.

The term EC50 denotes the concentration needed to bring the measured effect to its halfway point. The CC50 is the concentration that lowers cell viability or growth by half. Compound `Cn1cc(C#Cc2ccc(NC(=O)[C@@H]3COCCN3C(=O)[C@H](NC(=O)c3ccc(C#N)cc3)c3ccccc3)cc2)c(-c2cc(Cl)ccc2O)n1` [Compound 5] gave an EC50 in series [1] of less than 1000 nM. Moreover, the CC50 at 72 h in series [2] is greater than 33.3 µM.

In series [1], `CN(C)CCn1cc(C#Cc2ccc(NC(=O)[C@@H]3COCCN3C(=O)[C@H](NC(=O)NOC(C)(C)C)c3ccccc3)cc2)c(-c2cc(Cl)ccc2O)n1` [Example 18] showed an EC50 of 1000 to 10000 nM. In series [2], the CC50 at 72 h lay in the range of 1 to 10 µM.

Regarding `N#CCCn1cc(C#Cc2ccc(NC(=O)[C@@H]3COCCN3C(=O)[C@H](NC(=O)c3cnccn3)c3ccccc3)cc2)c(-c2cc(Cl)ccc2O)n1` [Compound 2], the EC50 in series [1] was less than 1000 nM. The CC50 at 72 h in series [2] was greater than 33.3 µM.

On to `N#CCCn1cc(C#Cc2ccc(NC(=O)[C@@H]3COCCN3C(=O)[C@H](NC(=O)N3CCC3)c3ccccc3)cc2)c(-c2cc(Cl)ccc2O)n1` [Compound 15], for which the EC50 in series [1] is less than 1000 nM. Besides, the CC50 at 72 h in series [2] was greater than 33.3 µM.

In the case of `C[C@@H]1CN(C(=O)N[C@@H](C(=O)N2CCOC[C@H]2C(=O)Nc2ccc(C#Cc3cn(CCC#N)nc3-c3cc(Cl)ccc3O)cc2)c2ccccc2)C[C@H](C)O1` [Compound 8], in series [1], the EC50 was less than 1000 nM. In series [2], the CC50 at 72 h was greater than 33.3 µM.

Compound `Cc1ccc(O)c(-c2nn(C)cc2C#Cc2ccc(NC(=O)[C@@H]3COCCN3C(=O)[C@H](NC(=O)N3CCOCC3)c3ccccc3)cc2)c1` [Example 19] had a 50% effective concentration (EC50) in series [1] of less than 1000 nM. Also, in series [2], the CC50 at 72 h is greater than 33.3 µM.

`N#CCCn1cc(C#Cc2ccc(NC(=O)[C@@H]3COCCN3C(=O)[C@H](NC(=O)N3CCNC(=O)C3)c3ccccc3)cc2)c(-c2cc(Cl)ccc2O)n1` [Example 20] came in with an EC50 in series [1] of less than 1000 nM. Also, the CC50 at 72 h in series [2] is greater than 33.3 µM.

With `COCC(=O)N[C@@H](C(=O)N1CCOC[C@H]1C(=O)Nc1ccc(C#Cc2cn(C)nc2-c2cc(Cl)ccc2O)cc1)c1ccccc1` [Compound 12], the EC50 in series [1] was less than 1000 nM. The CC50 at 72 h in series [2] is greater than 33.3 µM.

As to `CC(C)n1cc(C#Cc2ccc(NC(=O)[C@@H]3COCCN3C(=O)[C@H](NC(=O)c3ccccc3)c3ccccc3)cc2)c(-c2cc(Cl)ccc2O)n1` [Compound 6], the EC50 in series [1] is less than 1000 nM. Besides, the CC50 at 72 h in series [2] is greater than 33.3 µM.

Take `N#CCCn1cc(C#Cc2ccc(NC(=O)[C@@H]3COCCN3C(=O)[C@H](NC(=O)N3CCOCC3)c3ccccc3)cc2)c(-c2cc(Cl)ccc2O)n1` [Compound 4]: the EC50 in series [1] was less than 1000 nM. Moreover, the CC50 at 72 h in series [2] is greater than 33.3 µM.

Compound `N#CCCn1cc(C#Cc2ccc(NC(=O)[C@@H]3COCCN3C(=O)[C@H](NC(=O)N3CCC(=O)CC3)c3ccccc3)cc2)c(-c2cc(Cl)ccc2O)n1` [Compound 7] gave an EC50 in series [1] of less than 1000 nM. Also, the CC50 at 72 h in series [2] was greater than 33.3 µM.

For `CN1CCN(C(=O)N[C@@H](C(=O)N2CCOC[C@H]2C(=O)Nc2ccc(C#Cc3cn(CCC#N)nc3-c3cc(Cl)ccc3O)cc2)c2ccccc2)CC1` [Compound 16], in series [1], the EC50 is less than 1000 nM. Also, in series [2], the CC50 at 72 h is 1 to 10 µM.

With `Cc1ccc(O)c(-c2nn(C)cc2C#Cc2ccc(NC(=O)C3CCCCN3C(=O)[C@H](Cc3ccco3)NC(=O)OC(C)(C)C)cc2)c1` (stereo partly drawn) [Compound 12A], the EC50 in series [3] (GETYPE1B) and in series [4] (GETYPE1B) was less than 1000 nM throughout. For the same compound, the CC50 at 72 h in series [5] was in the range of 10 to 100 µM.

Take `Cc1ccc(O)c(-c2nn(C)cc2C#Cc2ccc(NC(=O)C3CCCCN3C(=O)[C@H](Cc3ccccc3)NC(=O)CC3CCCCC3)cc2)c1` (stereo partly drawn) [Compound 9]: the EC50 in series [3] and in series [4] was less than 1000 nM each time. In addition, the CC50 at 72 h in series [5] fell in the range of 10 to 100 µM.

As for `Cc1ccc(O)c(-c2nn(C)cc2C#Cc2ccc(NC(=O)C3CCCCN3C(=O)[C@H](Cc3ccc(C(N)=O)cc3)NC(=O)OC(C)(C)C)cc2)c1` (stereo partly drawn) [Compound 24], the EC50 in series [3] and in series [4] was less than 1000 nM each time. Further, the CC50 at 72 h in series [5] lay within 10 to 100 µM.

Consider `COc1ccc(C[C@H](NC(=O)OC(C)(C)C)C(=O)N2CCCCC2C(=O)Nc2ccc(C#Cc3cn(C)nc3-c3cc(C)ccc3O)cc2)cc1` (stereo partly drawn) [Compound 4], for which the EC50 in series [3] and in series [4] was less than 1000 nM throughout. Moreover, in series [5], the CC50 at 72 h was less than 1 µM.

In the case of `Cc1ccc(O)c(-c2nn(C)cc2C#Cc2ccc(NC(=O)C3CCCCN3C(=O)[C@@H](NC(=O)OC(C)(C)C)C3CCCCC3)cc2)c1` (stereo partly drawn) [Compound 13], the EC50 in series [3] is 1000 to 10000 nM; in series [4], less than 1000 nM. In series [5], the CC50 at 72 h is greater than 100 µM.

Take `Cn1cc(C#Cc2ccc(NC(=O)[C@@H]3CCCCN3C(=O)[C@H](NC(=O)OC(C)(C)C)c3cccs3)cc2)c(-c2cc(Br)ccc2O)n1` [Example 48]: the EC50 in series [3] and in series [4] was less than 1000 nM in each case. Also, the CC50 at 72 h in series [5] was greater than 100 µM.

Turning to `Cc1ccc(O)c(-c2nn(C)cc2C#Cc2ccc(NC(=O)C3CCCCN3C(=O)[C@H](Cc3ccccc3)NC(=O)CC3CCCC3)cc2)c1` (stereo partly drawn) [Compound 7], the EC50 in series [3] and in series [4] was less than 1000 nM each time. Moreover, in series [5], the CC50 at 72 h was greater than 100 µM.

Consider `Cn1cc(C#Cc2ccc(NC(=O)[C@@H]3COCCN3C(=O)[C@H](NC(=O)OC(C)(C)C)c3ccccc3)cc2)c(-c2cc(C#N)ccc2O)n1` [Compound 37], for which the EC50 in series [3] and in series [4] was less than 1000 nM in each case. For the same compound, in series [5], the CC50 at 72 h is greater than 100 µM.

`CCOC(=O)c1ccc(O)c(-c2nn(C)cc2C#Cc2ccc(NC(=O)[C@@H]3CCCCN3C(=O)[C@H](NC(=O)OC(C)(C)C)c3ccccc3OC)cc2)c1` [Compound 31]: the EC50 in series [3] and in series [4] was less than 1000 nM in each case. Also, in series [5], the CC50 at 72 h is greater than 100 µM.

Take `Cc1ccc(O)c(-c2nn(C)cc2C#Cc2ccc(NC(=O)[C@@H]3CCCCN3C(=O)[C@H](NC(=O)OC(C)(C)C)c3cccs3)cc2)c1` [Example 50]: the EC50 in series [3] and in series [4] was less than 1000 nM each time. Moreover, the CC50 at 72 h in series [5] was greater than 100 µM.

As to `Cc1ccc(O)c(-c2nn(C)cc2C#Cc2ccc(NC(=O)C3CCCCN3C(=O)[C@H](Cc3ccccc3)NC(=O)NC(C)(C)C)cc2)c1` (stereo partly drawn) [Example 18], the EC50 in series [3] and in series [4] was less than 1000 nM throughout. In series [5], the CC50 at 72 h was greater than 100 µM.

As for `CC(C)(C)OC(=O)N[C@@H](C(=O)N1CCOCC1C(=O)Nc1ccc(C#Cc2cn(CCO)nc2-c2cc(Cl)ccc2O)cc1)c1ccccc1` (stereo partly drawn) [Compound 30A], the EC50 in series [3] (GETYPE1B) and in series [4] (GETYPE1B) was less than 1000 nM throughout. Further, the CC50 at 72 h in series [5] is greater than 100 µM.

`Cc1ccc(O)c(-c2nn(C)cc2C#Cc2ccc(NC(=O)[C@@H]3CCCCN3C(=O)[C@@H](Cc3ccccc3)NC(=O)OC(C)(C)C)cc2)c1` [Compound 15]: the EC50 in series [3] and in series [4] was less than 1000 nM throughout. The CC50 at 72 h in series [5] was greater than 100 µM.

`Cn1cc(C#Cc2ccc(NC(=O)[C@@H]3CCCCN3C(=O)[C@H](NC(=O)OC(C)(C)C)c3ccccc3)cc2)c(-c2cc(Br)ccc2O)n1` [Compound 22]: the EC50 in series [3] and in series [4] was less than 1000 nM each time. Further, the CC50 at 72 h in series [5] was in the range of 10 to 100 µM.

Take `Cc1ccc(O)c(-c2nn(C)cc2C#Cc2ccc(NC(=O)C3CCCCN3C(=O)C(c3ccccc3)N(C)C(=O)OC(C)(C)C)cc2)c1` (stereo not drawn) [Compound 56]: the EC50 in series [3] and in series [4] was 1000 to 10000 nM in each case. Moreover, in series [5], the CC50 at 72 h lay in the range of 10 to 100 µM.

With `Cc1ccc(O)c(-c2nn(C)cc2C#Cc2ccc(NC(=O)[C@@H]3CCCCN3C(=O)[C@H](NC(=O)OC(C)(C)C)c3ccccc3)cc2)c1` [Compound 16], the EC50 in series [3] and in series [4] was less than 1000 nM each time. For the same compound, the CC50 at 72 h in series [5] is greater than 100 µM.

Turning to `Cn1cc(C#Cc2ccc(NC(=O)[C@@H]3COCCN3C(=O)[C@H](NS(=O)(=O)C3CC3)c3ccccc3)cc2)c(-c2cc(Cl)ccc2O)n1` [Compound 55], the EC50 in series [3] and in series [4] was less than 1000 nM throughout. Also, in series [5], the CC50 at 72 h lay within 10 to 100 µM.

As to `Cc1ccc(O)c(-c2nn(C)cc2C#Cc2ccc(NC(=O)C3CCCCN3C(=O)[C@H](CCc3ccccc3)NC(=O)OC(C)(C)C)cc2)c1` (stereo partly drawn) [Compound 7A], the EC50 in series [3] (GETYPE1B) and in series [4] (GETYPE1B) was less than 1000 nM throughout. Besides, the half-maximal cytotoxic concentration (CC50) at 72 h in series [5] fell in the range of 10 to 100 µM.

Turning to `Cc1ccc(O)c(-c2nn(C)cc2C#Cc2ccc(NC(=O)C3CCCCN3C(=O)[C@H](Cc3cccc(F)c3)NC(=O)OC(C)(C)C)cc2)c1` (stereo partly drawn) [Compound 27], the EC50 in series [3] and in series [4] was less than 1000 nM each time. In addition, the CC50 at 72 h in series [5] lay within 10 to 100 µM.

On to `Cn1cc(C#Cc2ccc(NC(=O)[C@@H]3COCCN3C(=O)[C@H](NC(=O)OC(C)(C)C)c3ccccc3)cc2)c(-c2cc(F)ccc2O)n1` [Example 47], for which the EC50 in series [3] and in series [4] was less than 1000 nM in each case. Further, the CC50 at 72 h in series [5] is greater than 100 µM.
